Laboratory results: patent publication US10071081B2, “Compositions of 1,2,4-oxadiazole benzoic acid compounds and methods for their use” (PTC Therapeutics, Inc., priority 2003, dated 2018)

System: luciferase reporter construct containing a UGA premature termination codon
Assay: cell-based luciferase reporter assay
Set-up: species or system Human; key to Activity: *****: both extremely high potency and extremely high efficacy of protein synthesis; ****: extremely high potency of protein synthesis and very high efficacy; ****: very high potency of protein synthesis and extremely high efficacy; ***: both very high potency and very high efficacy of protein synthesis; **: very high potency of protein synthesis and significant efficacy; **: significant potency of protein synthesis and very high efficacy; *: significant potency and efficacy of protein synthesis
Conditions: ranking combining potency and efficacy of protein synthesis; UGA luciferase reporter stably transfected in 293T Human Embryonic Kidney cells
Procedure: Activity measurements in Table I were performed in a cell-based luciferase reporter assay (as described in Section 4.2) comprising a luciferase reporter construct containing a UGA premature termination codon that was stably transfected in 293T Human Embryonic Kidney cells. A small molecule, 3-[3-(4-Isopropyl-phenyl)-2,5-dioxo-imidazolidin-1-yl]-benzoic acid, known to allow readthrough of premature termination codons was used was used as an internal standard. Activity measurements are based on the qualitative relation between the minimum concentration of compound required to produce a given protein in a cell (potency) and the maximum amount of protein produced by the cell (efficacy). Potency and efficacy activities are ranked as either extremely high, very high or significant. The combination of these activities is used to determine the activity ranking.
Two assays were developed for use in high throughput screens to identify small molecules that promote nonsense suppression. Each assay utilized luciferase because it is a functional reporter gene assay (light is only produced if the protein is functional) and it is extremely sensitive (Light intensity is proportional to luciferase concentration in the nM range). The first assay is a cell-based luciferase reporter assay and the second is a biochemical assay consisting of rabbit reticulocyte lysate and a nonsense-containing luciferase reporter mRNA. In the cell-based assay, a luciferase reporter construct containing a UGA premature termination codon was stably transfected in 293T Human Embryonic Kidney cells. In the biochemical assay, mRNA containing a UGA premature termination codon was used as a reporter in an in vitro translation reaction using rabbit reticulocyte lysate supplemented with tRNA, hemin, creatine kinase, amino acids, KOAc, Mg(OAc)2, and creatine phosphate. […] Synthetic mRNA was prepared in vitro using the T7 promoter and the MegaScript in vitro transcription kit (Ambion).
To determine whether compounds also function in vivo, a stable cell line harboring the UGA nonsense-containing luciferase gene was treated with selected compounds. Cells were grown in standard medium supplemented with 1% penicillin-streptomycin (P/S) and 10% fetal bovine serum (FBS) to 70% confluency and split 1:1 the day before treatment. On the following day, cells were trypsinized and 40,000 cells were added to each well of a 96-well tissue culture dish. Serial dilutions of each compound were prepared to generate a six-point dose response curve spanning 2 logs (30 μM to 0.3 μM). The final concentration of the DMSO solvent remained constant at 1% in each well. Cells treated with 1% DMSO served as the background standard, and cells treated with gentamicin served as a positive control.

SMILES: O=C(O)c1cccc(-c2noc(-c3cc4ccccc4s3)n2)c1 [Compound 65, 3-(5-Benzo[b]thiophen-2-yl-[1,2,4]oxadiazol-3-yl)-benzoic acid]
- Activity: *****

SMILES: CC(=O)N1CCC(c2nc(-c3cccc(C(=O)O)c3)no2)CC1 [Compound 64, 3-[5-(1-Acetyl-piperidin-4-yl)-[1,2,4]oxadiazol-3-yl]-benzoic acid]
- Activity: *

SMILES: O=C(O)c1cccc(-c2noc(-c3c(O)cccc3F)n2)c1 [Compound 85, 3-[5-(2-Fluoro-6-hydroxy-phenyl)-[1,2,4]oxadiazol-3-yl]-benzoic acid]
- Activity: **

SMILES: O=C(O)c1cccc(-c2noc(-c3ccc(Cl)nc3)n2)c1 [Compound 53, 3-[5-(6-Chloro-pyridin-3-yl)-[1,2,4]oxadiazol-3-yl]-benzoic acid]
- Activity: ****

SMILES: O=C(O)c1cccc(-c2noc(Cc3ccccc3)n2)c1 [Compound 42, 3-(5-Benzyl-[1,2,4]oxadiazol-3-yl)-benzoic acid]
- Activity: ***

SMILES: O=C(O)c1cccc(-c2noc(-c3ccc([N+](=O)[O-])cc3)n2)c1 [Compound 11, 3-[5-(4-Nitro-phenyl)-[1,2,4]oxadiazol-3-yl]-benzoic acid]
- Activity: ****

SMILES: O=C(O)c1cccc(-c2noc(-c3ccc(-c4ccccc4)cc3F)n2)c1 [Compound 81, 3-[5-(3-Fluoro-biphenyl-4-yl)-[1,2,4]oxadiazol-3-yl]-benzoic acid]
- Activity: **

SMILES: O=C(O)c1cccc(-c2noc(-c3ccc(F)cc3F)n2)c1 [Compound 57, 3-[5-(2,4-Difluoro-phenyl)-[1,2,4]oxadiazol-3-yl]-benzoic acid]
- Activity: ****

SMILES: O=C(O)c1cccc(-c2noc(CC3CCCC3)n2)c1 [Compound 56, 3-(5-Cyclopentylmethyl-[1,2,4]oxadiazol-3-yl)-benzoic acid]
- Activity: ***

SMILES: O=C(O)c1cccc(-c2noc(-c3ccc4c(c3)OCO4)n2)c1 [Compound 14, 3-(5-Benzo[1,3]dioxol-5-yl-[1,2,4]oxadiazol-3-yl)-benzoic acid]
- Activity: *****

SMILES: O=C(O)c1cccc(-c2noc(-c3ccc(OCc4ccccc4)cc3)n2)c1 [Compound 95, 3-[5-(4-Benzyloxy-phenyl)-[1,2,4]oxadiazol-3-yl]-benzoic acid]
- Activity: *

SMILES: O=C(O)c1cccc(-c2noc(-c3ccccc3Cl)n2)c1 [Compound 46, 3-[5-(2-Chloro-phenyl)-[1,2,4]oxadiazol-3-yl]-benzoic acid]
- Activity: *****

SMILES: O=C(O)c1cccc(-c2noc(-c3cc(F)ccc3F)n2)c1 [Compound 44, 3-[5-(2,5-Difluoro-phenyl)-[1,2,4]oxadiazol-3-yl]-benzoic acid]
- Activity: ****

SMILES: O=C(O)c1cccc(-c2noc(-c3ccc(-c4ccccc4)cc3)n2)c1 [Compound 06, 3-(5-Biphenyl-4-yl-[1,2,4]oxadiazol-3-yl)-benzoic acid]
- Activity: ****

SMILES: O=C(O)c1cccc(-c2noc(-c3ccc(N4CCCC4)nc3)n2)c1 [Compound 82, 3-[5-(6-Pyrrolidin-1-yl-pyridin-3-yl)-[1,2,4]oxadiazol-3-yl]-benzoic acid]
- Activity: ****

SMILES: O=C(O)c1cccc(-c2noc(-c3cccnc3)n2)c1 [Compound 58, 3-(5-Pyridin-3-yl-[1,2,4]oxadiazol-3-yl)-benzoic acid]
- Activity: ***

SMILES: Cc1cc(-c2nc(-c3cccc(C(=O)O)c3)no2)c(C)o1 [Compound 49, 3-[5-(2,5-Dimethyl-furan-3-yl)-[1,2,4]oxadiazol-3-yl]-benzoic acid]
- Activity: ****

SMILES: COc1ccc(-c2nc(-c3cccc(C(=O)O)c3)no2)cc1OC [Compound 62, 3-[5-(3,4-Dimethoxy-phenyl)-[1,2,4]oxadiazol-3-yl]-benzoic acid]
- Activity: ****

SMILES: Cc1ccccc1-c1nc(-c2cccc(C(=O)O)c2)no1 [Compound 13, 3-[5-(o-tolyl)-[1,2,4]oxadiazol-3-yl]-benzoic acid]
- Activity: *****

SMILES: COc1cccc(-c2nc(-c3cccc(C(=O)O)c3)no2)c1 [Compound 20, 3-[5-(3-Methoxy-phenyl)-[1,2,4]oxadiazol-3-yl]-benzoic acid]
- Activity: ****
